In patent US20230416199A1, “INHIBITORS OF AMINO ACID TRANSPORT” (ICAHN SCHOOL OF MEDICINE AT MOUNT SINAI, priority 2020, published 2023) one finds Ki data, which are given here for eight compounds.

In assay [1] the target is T1, hASCT2 (Homo sapiens, UniProt Q15758).
T1 construct: expressed in transfected cells; host or cells: HEK293 (ATCC CRL-11268), transient transfection
T1 sequence (Q15758 1-541): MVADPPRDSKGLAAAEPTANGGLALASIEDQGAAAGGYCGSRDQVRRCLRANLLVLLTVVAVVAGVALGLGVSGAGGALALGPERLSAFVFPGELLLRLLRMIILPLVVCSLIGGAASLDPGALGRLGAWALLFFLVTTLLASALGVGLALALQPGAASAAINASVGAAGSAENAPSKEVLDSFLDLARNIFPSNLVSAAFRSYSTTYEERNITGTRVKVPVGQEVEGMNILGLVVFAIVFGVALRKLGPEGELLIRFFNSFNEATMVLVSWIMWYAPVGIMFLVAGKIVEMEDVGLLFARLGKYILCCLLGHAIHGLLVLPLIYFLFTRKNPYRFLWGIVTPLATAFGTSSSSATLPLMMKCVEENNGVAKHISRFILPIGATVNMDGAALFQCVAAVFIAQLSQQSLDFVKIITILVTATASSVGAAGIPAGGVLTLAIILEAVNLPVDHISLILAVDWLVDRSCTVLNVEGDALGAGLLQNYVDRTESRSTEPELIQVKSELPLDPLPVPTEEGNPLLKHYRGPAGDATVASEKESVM
In words: Electrophysiology (whole-cell current recording) of transfected HEK293 cells, hASCT2. It counts as cell-based. The conditions noted are these: apparent Ki in the absence of substrate, HEK293, mean ± SD; read-out: Ki hASCT2. Put shortly:
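Readout: transporter-associated whole-cell currents in transfected HEK293 cells, with series resistance left uncompensated. The ASCT2 pipette solution contained 10 mM alanine and the EAAT1 solution 10 mM glutamate, both in 130 mM NaSCN at pH 7.40. Apparent Ki was obtained without substrate and reported as mean±SD.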

The target in assay [2] is T2, hASCT1 (Homo sapiens, UniProt P43007).
T2 construct: expressed in transfected cells; host or cells: HEK293 (ATCC CRL-11268), transient transfection
T2 sequence (P43007 1-532): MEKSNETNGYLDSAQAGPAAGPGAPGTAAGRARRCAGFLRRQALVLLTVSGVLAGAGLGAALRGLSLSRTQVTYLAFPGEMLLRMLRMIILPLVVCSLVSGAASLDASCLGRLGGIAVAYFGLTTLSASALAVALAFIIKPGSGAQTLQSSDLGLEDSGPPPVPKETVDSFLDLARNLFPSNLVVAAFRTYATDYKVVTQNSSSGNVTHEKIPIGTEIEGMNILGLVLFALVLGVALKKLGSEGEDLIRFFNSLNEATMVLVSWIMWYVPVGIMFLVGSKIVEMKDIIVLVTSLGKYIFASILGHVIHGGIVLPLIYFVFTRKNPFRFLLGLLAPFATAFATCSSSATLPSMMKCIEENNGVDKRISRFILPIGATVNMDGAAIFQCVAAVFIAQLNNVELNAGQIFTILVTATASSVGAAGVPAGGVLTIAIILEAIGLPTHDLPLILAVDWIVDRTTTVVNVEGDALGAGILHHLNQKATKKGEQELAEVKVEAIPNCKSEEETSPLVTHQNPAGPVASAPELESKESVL
In words: Electrophysiology (whole-cell current recording) of transfected HEK293 cells, hASCT1. It counts as cell-based. To be noted: apparent Ki in the absence of substrate, HEK293, mean ± SD; read-out: Ki hASCT1.

As for `Cc1ccccc1-c1ccc(C(=O)O[C@@H]2CN[C@H](C(=O)O)C2)cc1` [SN 10], the Ki came to 1.12 ± 0.1 µM in assay [1] and 1.33 ± 0.3 µM in assay [2].
Taken in the same sequence, the figures for `O=C(O[C@@H]1CN[C@H](C(=O)O)C1)c1ccc(-c2ccc(F)cc2)cc1` [SN 08] were 0.74 ± 0.1 µM and 0.9 ± 0.1 µM.
In the case of `O=C(O[C@@H]1CN[C@H](C(=O)O)C1)c1ccc(-c2ccccc2)nc1` [SN 19], the Ki in assay [1] amounted to 7.93 ± 0.9 µM; in assay [2], 4.37 ± 0.8 µM.
Regarding `Cc1ccccc1-c1ccc(C(=O)O[C@@H]2CN[C@H](C(=O)O)C2)cc1C` [SN 11], the Ki is 9.13 ± 1.7 µM in assay [1] and 8.2 ± 0.8 µM in assay [2].
Taken in the same sequence, the figures for `N[C@@H](COC(=O)c1ccc(NC(=O)c2ccccc2)cc1)C(=O)O` [SN 25] were 22.6 ± 3.7 µM and 11.6 ± 1.8 µM.
The corresponding values for `O=C(O[C@@H]1CN[C@H](C(=O)O)C1)c1ccc(-c2ccccc2)cc1` [SN 05] are 0.87 ± 0.1 µM and 2.77 ± 0.1 µM.
Consider `O=C(O)[C@@H]1C[C@H](OCc2ccc(-c3ccccc3)cc2)CN1` [SN 39], for which the Ki in assay [1] came to 0.98 ± 0.1 µM; in assay [2], 2.82 ± 0.1 µM.
Turning to `O=C(O[C@@H]1CN[C@H](C(=O)O)C1)c1ccc(-c2ccc(C(F)(F)F)cc2)cc1` [SN 09], the Ki in assay [1] worked out at 1.05 ± 0.2 µM; in assay [2], 0.44 ± 0.1 µM.
